Test results: patent US6346543B1, “Use of a taxoid to treat abnormal cell proliferation in the brain” (priority 1998, dated 2002)
Where “and” joins values, the source holds several entries; their conditions need not be identical. Identical values can stand only once.

Test: Single i.v. bolus pharmacokinetic study in mice: plasma and brain levels by LC-MS/MS
Assay type: in vivo, female C3H/HeN mice
Details: mouse; for Plasma product (Ic) concentration: individual animals IV1-IV4
Experimental: Analytical Results Obtained from a Single i.v. Bolus Pharmacokinetic Study in Mice.
Groups of female C3H/HeN mice received the product by an intravenous route as a bolus at a dose level of 40 mg.kg^−1, equivalent to 120 mg.m^−2. Blood and brain samples were obtained from all dosed animals sacrificed at intervals up to 72 hours post dose. Brain and corresponding plasma samples were assayed for product (Ia) content by an LC-MS/MS assay.
2.25 mg.ml^−1 solution containing 5% Polysorbate 80, 5% ethanol, and 90% of an aqueous 5% glucose solution.
Fifty-six female C3H/HeN mice, each weighing ca 20 g, were each administered formulated product II by i.v. bolus via the tail vein at an injection volume of 0.4 ml to give a total dose of 40 mg.kg^−1.
Blood by cardiac puncture, and liver and brain by dissection after CO2 sacrifice.
Whole blood was collected in heparinised tubes, and corresponding plasma samples were obtained by centrifugation, and frozen immediately at −20° C. Tissues were blotted, weighed, and frozen immediately at −20° C. All samples were dispatched frozen for analysis. Upon receipt, samples were stored frozen at approximately −18° C. pending analysis.
LC-MS/MS (Sciex API III plus) in turbo-ionspray mode.
75×4.6 mm Supelcosil ABZ plus (3 μm).
Acetonitrile/methanol/ammonium acetate (10 mM); 40/25/35 v/v/v.
Plasma: Added 100 μl of acetonitrile to sample (50 μl). Vortexed, centrifuged, removed supernatant, added 100 μl of mobile phase and injected 150 μl .
Brain: Added 100 μl of acetonitrile to homogenised sample (100 mg of a 1:1 w/w brain with water homogenate) and vortexed. Added 1 ml of diethyl ether, vortexed, centrifuged, removed organic layer, and dried under N2. Reconstituted in 200 μl of mobile phase and injected 150 μl.
Plasma: Nine at concentrations of 5, 10, 20, 50, 100, 200, 300, 400 & 500 ng.ml^−1 (product Ia). Prepared by adding suitable aliquots of the product (concentrations =0.1, 1 or 10 μg.ml^−1) in ethanol to 0.5 ml aliquots of mouse plasma. Each sample was vortexed following drug addition; a 50 μl aliquot was then removed for assay.
Brain: Eleven at concentrations of 10, 20, 30, 100, 200, 300, 400, 500, 1000, 2500 & 5000 ng.g^−1 in homogenised mouse brain (1:1 w/w brain with water). Prepared by adding suitable aliquots of the product (concentrations=1, 10 or 100 μg.ml-^−1) in ethanol to 0.5, 1, 3 or 4 g of homogenised mouse brain. Each sample was vortexed following drug addition and a 100 mg aliquot was then removed for assay.
A biexponential equation was fitted to the profiles using an interactive linear least-square algorithm as part of the SIPHAR package.

[1] = plasma, i.v. 40 mg.kg^−1, calculated from values ≧b.l.q. of 20 ng.ml^−1
[2] = plasma, i.v. 40 mg.kg^−1, calculated from values ≧l.o.d. of 4 ng.ml^−1

CO[C@H]1C(=O)[C@]2(C)[C@@H](OC)C[C@H]3OC[C@@]3(OC(C)=O)[C@H]2[C@H](OC(=O)c2ccccc2)[C@]2(O)C[C@H](OC(=O)[C@H](O)[C@@H](NC(=O)OC(C)(C)C)c3ccccc3)C(C)=C1C2(C)C [Product (Ia), 4α-acetoxy-2α-benzoyloxy-5β, 20-epoxy-1β-hydroxy-7β, 10β-dimethoxy-9-oxo-11-taxen-13α-yl (2R,3S)-3 tert-butoxycarbonylamino-2-hydroxy-3-phenylpropionate]
AUC0-72h (brain, i.v. 40 mg.kg^−1): *the corresponding AUC0-72h = 549.7 h.μg.g^−1 | Terminal T½ (brain, i.v. 40 mg.kg^−1): 31.4 h | AUC0-∞ (brain, i.v. 40 mg.kg^−1, mean data, extrapolated from 72 h, listed as product (Ic)): 787.g* h.μg.g^−1 | Mean total plasma clearance (i.v. 40 mg.kg^−1): 1.3 I.h^−1.kg^−1 | levels in the brain relative to those in the plasma (on the basis of AUC0∞ values) (i.v. 40 mg.kg^−1): about twenty | time post dose up to which plasma levels persisted above the limit of accurate quantification (20 ng.ml^−1) (i.v. 40 mg.kg^−1): up to 14 h | time post dose up to which plasma levels were consistently above the limit of detection (4 ng.ml^−1) (i.v. 40 mg.kg^−1): up to 24 h | Plasma product (Ic) concentration (i.v. 40 mg.kg^−1, 2 min after dose): 52987 ng/mL and 45942 ng/mL and 49607 ng/mL and 38994 ng/mL | Plasma product (Ic) concentration, MEAN (i.v. 40 mg.kg^−1, 2 min after dose, mean of IV1-IV4): 46882 ng/mL | Plasma product (Ic) concentration (i.v. 40 mg.kg^−1, 5 min after dose): 36734 ng/mL and 33538 ng/mL and 32077 ng/mL and 34903 ng/mL | Plasma product (Ic) concentration, MEAN (i.v. 40 mg.kg^−1, 5 min after dose, mean of IV1-IV4): 34313 ng/mL | Plasma product (Ic) concentration (i.v. 40 mg.kg^−1, 15 min after dose): 20493 ng/mL and 20897 ng/mL and 21051 ng/mL and 19459 ng/mL | Plasma product (Ic) concentration, MEAN (i.v. 40 mg.kg^−1, 15 min after dose, mean of IV1-IV4): 20475 ng/mL | Plasma product (Ic) concentration (i.v. 40 mg.kg^−1, 0.5 h after dose): 10765 ng/mL and 10344 ng/mL and 9170 ng/mL and 11232 ng/mL | Plasma product (Ic) concentration, MEAN (i.v. 40 mg.kg^−1, 0.5 h after dose, mean of IV1-IV4): 10378 ng/mL | Plasma product (Ic) concentration (i.v. 40 mg.kg^−1, 0.75 h after dose): 7133 ng/mL and 10948 ng/mL and 8121 ng/mL and 10148 ng/mL | Plasma product (Ic) concentration, MEAN (i.v. 40 mg.kg^−1, 0.75 h after dose, mean of IV1-IV4): 9087 ng/mL | Plasma product (Ic) concentration (i.v. 40 mg.kg^−1, 1 h after dose): 6017 ng/mL and 7423 ng/mL and 6693 ng/mL and 6079 ng/mL | Plasma product (Ic) concentration, MEAN (i.v. 40 mg.kg^−1, 1 h after dose, mean of IV1-IV4): 6553 ng/mL | Plasma product (Ic) concentration (i.v. 40 mg.kg^−1, 4 h after dose): 1072 ng/mL and 1110 ng/mL and 835 ng/mL and 830 ng/mL | Plasma product (Ic) concentration, MEAN (i.v. 40 mg.kg^−1, 4 h after dose, mean of IV1-IV4): 962 ng/mL | Plasma product (Ic) concentration (i.v. 40 mg.kg^−1, 6 h after dose): 449 ng/mL and 316 ng/mL and 346 ng/mL and 336 ng/mL | Plasma product (Ic) concentration, MEAN (i.v. 40 mg.kg^−1, 6 h after dose, mean of IV1-IV4): 362 ng/mL | Plasma product (Ic) concentration (i.v. 40 mg.kg^−1, 8 h after dose): 204 ng/mL and 199 ng/mL and 195 ng/mL and 154 ng/mL | Plasma product (Ic) concentration, MEAN (i.v. 40 mg.kg^−1, 8 h after dose, mean of IV1-IV4): 188 ng/mL | Plasma product (Ic) concentration (i.v. 40 mg.kg^−1, 14 h after dose): 65 ng/mL and 56 ng/mL and 50 ng/mL and 52 ng/mL | Plasma product (Ic) concentration, MEAN (i.v. 40 mg.kg^−1, 14 h after dose, mean of IV1-IV4): 56 ng/mL | Plasma product (Ic) concentration (i.v. 40 mg.kg^−1, 24 h after dose, blq = below limit of accurate quantification (20 ng.ml^−1)): ~18(blq) ng.ml^−1 and ~15(blq) ng.ml^−1 (2×) and ~16(blq) ng.ml^−1 | Plasma product (Ic) concentration, MEAN (i.v. 40 mg.kg^−1, 24 h after dose, mean of IV1-IV4 (all blq)): 16 ng/mL | Plasma product (Ic) concentration (i.v. 40 mg.kg^−1, 48 h after dose, n.d. = not detected (≦l.o.d. of 4 ng.ml^−1)): ~4(blq) ng.ml^−1 | Plasma product (Ic) concentration, MEAN (i.v. 40 mg.kg^−1, 48 h after dose, mean of IV1-IV4 (blq / n.d.)): 2 ng/mL | brain level, peak (i.v. 40 mg.kg^−1, at 14 h): 9.1 µg/g | brain level (i.v. 40 mg.kg^−1, last sampling time, 72 h): 5.3 µg/g | plasma level, peak (mean) (i.v. 40 mg.kg^−1, peak at 2 minutes): 46900 ng/mL | Plasma product (Ic) concentration (i.v. 40 mg.kg^−1, time after dose printed as — (between 1 h and 4 h)): 4633 ng/mL and 4337 ng/mL and 4600 ng/mL and 3564 ng/mL | Plasma product (Ic) concentration, MEAN (i.v. 40 mg.kg^−1, time after dose printed as — (between 1 h and 4 h), mean of IV1-IV4): 4283 ng/mL | plasma level (i.v. 40 mg.kg^−1, within 4 h): less than 1 μg.ml^−1 | penetration of the blood brain barrier (post-i.v. administration): appeared to readily penetrate the blood brain barrier | ClT (total plasma clearance) [1]: 1.3 1.h^−1.kg^−1 | Initial T½ [1]: 0.2 h | Terminal T½ [1]: 2.0 h | Vdss [1]: 2.4 1.kg^−1 | ClT (total plasma clearance) [2]: 1.3 1.h^−1.kg^−1 | Initial T½ [2]: 0.7 h | Terminal T½ [2]: 6.2 h | Vdss [2]: 1.9 1.kg^−1
